ChEMBL document CHEMBL1201862, “PubChem BioAssay data set” (2004)
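Step 1: Grow cells in 96-well plates. Step 2: Expose to compound for 48 hours at 5 concentrations. Step 3: Interpolate endpoints linearly; if unreached, use highest concentration. GI50 marks 50% less growth.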 Active and inactive are the calls of the source. No stated cut-off is given here; in the data, active = GI50 up to about 1.1 µM and inactive = higher.

Key:
Test in all cases: growth of human tumour cells (NCI), 48 h
786-0 = tested on: 786-0
A498 = tested on: A498
CCRF-CEM = tested on: CCRF-CEM
HCT-15 = tested on: HCT-15
HT-29 = tested on: HT-29
KM12 = tested on: KM12
MCF7 = tested on: MCF7
MDA-MB-231 = tested on: MDA-MB-231
MDA-N = tested on: MDA-N
MOLT-4 = tested on: MOLT-4
NCI-H23 = tested on: NCI-H23
SF-295 = tested on: SF-295
SK-OV-3 = tested on: SK-OV-3
SNB-19 = tested on: SNB-19
SW-620 = tested on: SW-620
U-251 = tested on: U-251
UACC-257 = tested on: UACC-257
UACC-62 = tested on: UACC-62
BT-549 = tested on: BT-549
HCT-116 = tested on: HCT-116

Compound | GI50 (786-0) | GI50 (A498) | GI50 (CCRF-CEM) | GI50 (HCT-15) [µM] | GI50 (HT-29) | GI50 (KM12) | GI50 (MCF7) | GI50 (MDA-MB-231) | GI50 (MDA-N) | GI50 (MOLT-4) | GI50 (NCI-H23) | GI50 (SF-295) | GI50 (SK-OV-3) | GI50 (SNB-19) | GI50 (SW-620) | GI50 (U-251) | GI50 (UACC-257) | GI50 (UACC-62) | GI50 (BT-549) | GI50 (HCT-116)
C=C(OC1C(C)=C2C(C1OC(=O)CCCCCCC)C(C)(OC(C)=O)CC(OC(=O)CCC)C1(O)C2OC(=O)C1(C)O)/C(C)=C/C (stereo not drawn) | < 0.0001 µM (active) | 0.0125 µM (active) | 0.0141 µM (active) | 0.0316 | 0.0125 µM (active) | 0.0125 µM (active) | 0.0125 µM (active) | < 0.0001 µM (active) | < 0.0001 µM (active) | 0.0125 µM (active) | 0.0125 µM (active) | 0.0125 µM (active) | 0.34 µM (active) | 0.0422 µM (active) | 0.0125 µM (active) | 0.0125 µM (active) | 0.0125 µM (active) | 0.0125 µM (active) |  | 
CCCCCCCCCCCCCCCCCCNc1ccn(C2OC(COP(=O)(O)O)C(O)C2O)c(=O)n1 (stereo not drawn) | > 100 µM (inactive) | > 100 µM (inactive) | > 100 µM (inactive) | > 100 | > 100 µM (inactive) | > 100 µM (inactive) | > 100 µM (inactive) | > 100 µM (inactive) |  | > 100 µM (inactive) | > 100 µM (inactive) | > 100 µM (inactive) | > 100 µM (inactive) | > 100 µM (inactive) | > 100 µM (inactive) | > 100 µM (inactive) | > 100 µM (inactive) | > 100 µM (inactive) | > 100 µM (inactive) | > 100 µM (inactive)
COC1C=COC2(C)Oc3c(C)c(O)c4c(O)c(c(C5SCCS5)c(O)c4c3C2=O)NC(=O)C(C)=C/C=C\C(C)C2OC(C)(C)OC(C2C)C(C)C(OC(C)=O)C1C (stereo not drawn) | 10.1 µM (inactive) | 12.3 µM (inactive) | 5.86 µM (inactive) | 5.6 |  | 6.04 µM (inactive) | 2.92 µM (inactive) | 13.6 µM (inactive) |  | 3.83 µM (inactive) | 6.44 µM (inactive) | 5.32 µM (inactive) | 17.1 µM (inactive) | 16.4 µM (inactive) | 7 µM (inactive) | 4.78 µM (inactive) | 2.74 µM (inactive) | 4.02 µM (inactive) | 3.73 µM (inactive) | 5.05 µM (inactive)
Cc1ccc(C)n2c1nc1cc3ccccc3cc12 | 36.2 µM (inactive) |  | 33.4 µM (inactive) | 4.92 |  | 21.1 µM (inactive) | 1.14 µM (inactive) |  | 38.6 µM (inactive) | 23.3 µM (inactive) | 25.2 µM (inactive) | 42.3 µM (inactive) | 32.4 µM (inactive) | 24.4 µM (inactive) | 33.1 µM (inactive) | 30.4 µM (inactive) | 49.2 µM (inactive) | 18.8 µM (inactive) | 25.6 µM (inactive) | 15.3 µM (inactive)
O=[N+]([O-])/C(Cl)=C(/C(Cl)=C(Cl)Cl)N1CCCCC1 | 11.3 µM (inactive) | 18.4 µM (inactive) | 4.73 µM (inactive) | 4.36 | 14.9 µM (inactive) | 14.5 µM (inactive) | 0.444 µM (active) | 24 µM (inactive) | 8.34 µM (inactive) | 3.27 µM (inactive) | 8.49 µM (inactive) | 23.7 µM (inactive) | 28.5 µM (inactive) | 24.5 µM (inactive) |  | 11.8 µM (inactive) |  | 4.21 µM (inactive) |  | 6.18 µM (inactive)
C#CC(O)/C=C/C(O)CCCC(O)CC#CC(O)C#CC(O)CCCC(O)/C=C/CCCCCC(=O)CCCCCCCCCCCCCC(O)C(O)C#CC(=O)O (stereo not drawn) | > 50 µM (inactive) | > 50 µM (inactive) | 14.3 µM (inactive) | > 50 | 19.3 µM (inactive) | > 50 µM (inactive) | 14.3 µM (inactive) | 12.1 µM (inactive) | > 50 µM (inactive) | 14 µM (inactive) | > 50 µM (inactive) | > 50 µM (inactive) | > 50 µM (inactive) | > 50 µM (inactive) |  | > 50 µM (inactive) | > 50 µM (inactive) | > 50 µM (inactive) |  | > 50 µM (inactive)
CCNC1(c2cccc(C)c2)OC(C)(C)c2cccc3cccc1c23 (stereo not drawn) | 18.8 µM (inactive) | 17.5 µM (inactive) | 2.5 µM (inactive) | 19.6 | 14 µM (inactive) | 21.9 µM (inactive) | 17.7 µM (inactive) |  | 19.3 µM (inactive) |  | 17.9 µM (inactive) | 17.9 µM (inactive) | 17.7 µM (inactive) | 18.2 µM (inactive) | 17.8 µM (inactive) | 16.9 µM (inactive) | 18.8 µM (inactive) | 15.6 µM (inactive) | 18.9 µM (inactive) | 27 µM (inactive)
C=CCNC(=O)NC1=CSC2=NC(=O)C3(NN12)c1ccccc1-c1ccccc13 | > 10 µM (inactive) |  | > 10 µM (inactive) | > 10 | > 10 µM (inactive) | > 10 µM (inactive) | > 10 µM (inactive) | > 10 µM (inactive) |  | > 10 µM (inactive) | > 10 µM (inactive) | > 10 µM (inactive) | > 10 µM (inactive) | > 10 µM (inactive) | > 10 µM (inactive) |  | > 10 µM (inactive) | > 10 µM (inactive) | > 10 µM (inactive) | > 10 µM (inactive)
CC1=NN(c2nc(N)nc(CF)n2)C(C)(C)C1 | > 100 µM (inactive) | > 100 µM (inactive) | > 100 µM (inactive) | > 100 | > 100 µM (inactive) | > 100 µM (inactive) | > 100 µM (inactive) | > 100 µM (inactive) |  | > 100 µM (inactive) | > 100 µM (inactive) | > 100 µM (inactive) | > 100 µM (inactive) | > 100 µM (inactive) | > 100 µM (inactive) | > 100 µM (inactive) | > 100 µM (inactive) | > 100 µM (inactive) | > 100 µM (inactive) | > 100 µM (inactive)
C#CCNC(Cc1ccccc1)C(=O)O (stereo not drawn) | > 100 µM (inactive) | > 100 µM (inactive) | > 100 µM (inactive) | > 100 | > 100 µM (inactive) | > 100 µM (inactive) |  | > 100 µM (inactive) |  | > 100 µM (inactive) | > 100 µM (inactive) | > 100 µM (inactive) | > 100 µM (inactive) | > 100 µM (inactive) | > 100 µM (inactive) | > 100 µM (inactive) | > 100 µM (inactive) | > 100 µM (inactive) | > 100 µM (inactive) | > 100 µM (inactive)
c1ccc2/c3[nH]/c(c2c1)=N\c1ccc(cc1)-c1nc2cc(ccc2o1)/N=c1/[nH]/c(c2ccccc12)=N/c1ccc2nc(oc2c1)-c1ccc(cc1)\N=3 | > 100 µM (inactive) | > 100 µM (inactive) | > 100 µM (inactive) | > 100 | 49.4 µM (inactive) | 81.1 µM (inactive) | > 100 µM (inactive) |  | > 100 µM (inactive) | > 100 µM (inactive) | > 100 µM (inactive) | > 100 µM (inactive) |  | > 100 µM (inactive) | > 100 µM (inactive) | > 100 µM (inactive) | > 100 µM (inactive) | 95.3 µM (inactive) | > 100 µM (inactive) | > 100 µM (inactive)
N#Cc1c(N2CCCC2)ncn(Cc2ccccc2)c1=O | > 100 µM (inactive) | > 100 µM (inactive) | > 100 µM (inactive) | > 100 | > 100 µM (inactive) | > 100 µM (inactive) |  |  | > 100 µM (inactive) | > 100 µM (inactive) |  | > 100 µM (inactive) | > 100 µM (inactive) | > 100 µM (inactive) | > 100 µM (inactive) | > 100 µM (inactive) | > 100 µM (inactive) | > 100 µM (inactive) | > 100 µM (inactive) | > 100 µM (inactive)
CC1(C)O[C@@H]2[C@@H](COC(=O)c3ccccc3)C[C@@H](C#N)[C@@H]2O1 | > 100 µM (inactive) | > 100 µM (inactive) | > 100 µM (inactive) | > 100 | > 100 µM (inactive) | > 100 µM (inactive) | > 100 µM (inactive) | > 100 µM (inactive) |  | > 100 µM (inactive) | > 100 µM (inactive) | > 100 µM (inactive) | > 100 µM (inactive) | > 100 µM (inactive) | > 100 µM (inactive) | > 100 µM (inactive) |  | > 100 µM (inactive) | > 100 µM (inactive) | > 100 µM (inactive)
CCOC(=O)Nc1[nH]cc(-c2ccccc2)c1C#N | > 100 µM (inactive) | > 100 µM (inactive) | > 100 µM (inactive) | > 100 | > 100 µM (inactive) | > 100 µM (inactive) | > 100 µM (inactive) | > 100 µM (inactive) | > 100 µM (inactive) | > 100 µM (inactive) | > 100 µM (inactive) | > 100 µM (inactive) | > 100 µM (inactive) | > 100 µM (inactive) | > 100 µM (inactive) | > 100 µM (inactive) |  | > 100 µM (inactive) |  | > 100 µM (inactive)
CN(Cc1cc(Cl)c(Cl)cc1NC(=O)CN)[C@H]1CCCC[C@@H]1N1CCCC1 | 17.1 µM (inactive) | 18.4 µM (inactive) | 30.3 µM (inactive) |  | 19 µM (inactive) | 44.4 µM (inactive) | 32.4 µM (inactive) | 38.5 µM (inactive) | 17 µM (inactive) | 28.8 µM (inactive) | > 100 µM (inactive) | 18.6 µM (inactive) | > 100 µM (inactive) | 45.2 µM (inactive) | 37.5 µM (inactive) | 5.2 µM (inactive) | 16.9 µM (inactive) | 17.1 µM (inactive) |  | 20.8 µM (inactive)
